Source: ChEMBL document CHEMBL4513161, “CO-ADD screening of MMV (CH) - Pandemic Response Box” (2021)
Values after ≈ are worked out from the molar mass of the structure shown.

Experiments:
Pseudomonas aeruginosa [1] = assay: Antibacterial activity against Pseudomonas aeruginosa PAO397 [PAO1 d(mexAB-oprM) d(mexCD-oprJ) d(mexEF-oprN) d(mexJKL) d(mexXY) d(opmH)] (CO-ADD:GN_211); MIC in CAMBH media using NBS plates, by OD(600); type: functional; conditions: ASSAY_TEST Inhibition of Bacterial Growth, detection method Absorption (OD600), MEDIA CAMHB, plate type 384well, CORNING #3640, time 18 hr
Pseudomonas aeruginosa [2] = assay: microbe, parasite or virus in culture; conditions: ATCC 27853, 18 h, ASSAY_TEST Inhibition of Bacterial Growth, detection method Absorption (OD600), MEDIA CAMHB, plate type 384well, NBS, CORNING #3640
Description: Antibacterial activity against Pseudomonas aeruginosa ATCC 27853 (CO-ADD:GN_042); MIC in CAMBH media using NBS plates, by OD(600)

Candida albicans = assay: microbe, parasite or virus in culture; conditions: ATCC 90028, ASSAY_TEST Inhibition of Fungal Growth, detection method Absorption (OD530), plate type 384well, NBS, CORNING #3640
Description: Antifungal activity against Candida albicans ATCC 90028 (CO-ADD:FG_001); MIC in YNB media using NBS plates, by OD630

Acinetobacter baumannii = assay: microbe, parasite or virus in culture; conditions: ATCC 19606, 18 h, ASSAY_TEST Inhibition of Bacterial Growth, detection method Absorption (OD600), MEDIA CAMHB, plate type 384well, NBS, CORNING #3640
Description: Antibacterial activity against Acinetobacter baumannii ATCC 19606 (CO-ADD:GN_034); MIC in CAMBH media using NBS plates, by OD600

Staphylococcus aureus = assay: microbe, parasite or virus in culture; conditions: ATCC 43300, 18 h, ASSAY_TEST Inhibition of Bacterial Growth, detection method Absorption (OD600), MEDIA CAMHB, plate type 384well, NBS, CORNING #3640
Description: Antibacterial activity against Staphylococcus aureus MRSA ATCC 43300 (CO-ADD:GP_020); MIC in CAMBH media, using NBS plates, by OD(600)

HEK293 = assay: cells; type: functional, Homo sapiens, ATCC CRL1573; conditions: Homo sapiens, ATCC CRL1573, HEK293; ASSAY_TEST Inhibition of Cell Viability; detection method Resazurin; Fluorescence (ex560/em590); MEDIA DMEM with 10% FBS; plate type 384well; TC; CORNING #3712; time 18 hr; read-out: CC50
Klebsiella pneumoniae = assay: microbe, parasite or virus in culture; conditions: ATCC 700603, 18 h, ASSAY_TEST Inhibition of Bacterial Growth, detection method Absorption (OD600), MEDIA CAMHB, plate type 384well, NBS, CORNING #3640
Description: Antibacterial activity against Klebsiella pneumoniae MDR ATCC 70063 (CO-ADD:GN_003); MIC in CAMBH media using NBS plates, by OD(600)

Escherichia coli = assay: microbe, parasite or virus in culture; conditions: ATCC 25922, 18 h, ASSAY_TEST Inhibition of Bacterial Growth, detection method Absorption (OD600), MEDIA CAMHB, plate type 384well, NBS, CORNING #3640
Description: Antibacterial activity against Escherichia coli ATCC 25922 (CO-ADD:GN_001); MIC in CAMBH media using NBS plates, by OD(600)

Description for Cryptococcus neoformans: Antifungal activity against Cryptococcus neoformans H99 ATCC 208821 (CO-ADD:FG_002); MIC in YNB media using NBS plates, by Resazurin OD(600-570)

Compound	MIC (Pseudomonas aeruginosa [1])	MIC (Cryptococcus neoformans)	MIC (Pseudomonas aeruginosa [2])	MIC (Candida albicans)	MIC (Acinetobacter baumannii)	MIC (Staphylococcus aureus)	CC50 (HEK293)	MIC (Klebsiella pneumoniae)	MIC (Escherichia coli)
COc1cc(NC(=O)CN2C(=O)NC(c3ccccc3)(c3ccccc3)C2=O)cc(OC)c1	> 20 µM	> 20 µM	> 20 µM	> 20 µM	> 20 µM	> 20 µM	> 20 µM	> 20 µM	> 20 µM
C[C@@H](NC(=O)c1ccccc1-c1ccccc1)B(O)O	> 20 µM	> 20 µM	> 20 µM	> 20 µM	> 20 µM	> 20 µM	> 20 µM	> 20 µM	> 20 µM
O=C(Nc1ccccc1)N(Cc1cc(Br)ccc1O)c1ccc(F)cc1	> 20 µM	> 20 µM	> 20 µM	> 20 µM	> 20 µM	> 20 µM	> 20 µM	> 20 µM	> 20 µM
c1ccc(-c2nnc3c4ccccc4c(N4CCNCC4)nn23)cc1	> 20 µM	> 20 µM	> 20 µM	> 20 µM	> 20 µM	> 20 µM	14.2 µM	> 20 µM	> 20 µM
CCNC(=O)Nc1cc(-c2ccccc2)c(-c2cncc(C(=O)O)c2)cn1	> 20 µM	> 20 µM	> 20 µM	> 20 µM	> 20 µM	> 20 µM	> 20 µM	> 20 µM	> 20 µM
Cc1cc(Nc2ccc(F)cc2)nc(SCc2nc3ccccc3[nH]2)n1	> 20 µM	> 20 µM	> 20 µM	> 20 µM	> 20 µM	> 20 µM	> 20 µM	> 20 µM	> 20 µM
Fc1ccc2c(/C=C/c3cccnc3)c[nH]c2c1	> 20 µM	> 20 µM	> 20 µM	> 20 µM	> 20 µM	> 20 µM	> 20 µM	> 20 µM	> 20 µM
CCNC(=O)Nc1cc2c(-c3ccnc(C)c3)ccc(CNC(=O)OC)c2cn1	2.5 µM (≈ 0.984 µg/mL)	> 20 µM	> 20 µM	> 20 µM	> 20 µM	0.312 µM (≈ 0.123 µg/mL)	> 20 µM	> 20 µM	> 20 µM
C[C@@H](O)[C@H](N)C(=O)NS(=O)(=O)c1cccc(-c2ccc3[nH]ncc3c2)c1	> 20 µM	> 20 µM	> 20 µM	> 20 µM	> 20 µM	> 20 µM	> 20 µM	> 20 µM	> 20 µM
O=c1ccc2ncc(=O)n3c2n1CC3CN1CCC(NCc2cc3c(cn2)OCCC3)CC1 (stereo unspecified)	≤ 0.156 µM	> 20 µM	20 µM (≈ 8.97 µg/mL)	> 20 µM	10 µM (≈ 4.49 µg/mL)	0.625 µM (≈ 0.28 µg/mL)	> 20 µM	> 20 µM	2.5 µM (≈ 1.12 µg/mL)
O=C(Nc1cccc(C2=NCCN2)c1)c1ccc(-c2ccc(C(=O)Nc3cccc(C4=NCCN4)c3)cc2)cc1	5 µM (≈ 2.64 µg/mL)	> 20 µM	> 20 µM	> 20 µM	> 20 µM	0.625 µM (≈ 0.33 µg/mL)	> 20 µM	> 20 µM	2.5 µM (≈ 1.32 µg/mL)
CCOC(=O)Nc1cc(NC(C)CC(C)CN(CC)CC)c2nc(-c3ccccc3)c(-c3ccccc3)nc2n1 (stereo unspecified)	> 20 µM	> 20 µM	> 20 µM	> 20 µM	> 20 µM	> 20 µM	> 20 µM	> 20 µM	> 20 µM
CCCCSc1nc(N)c2[nH]c(=O)c(=O)n(Cc3ccccc3)c2n1	> 20 µM	> 20 µM	> 20 µM	> 20 µM	> 20 µM	> 20 µM	> 20 µM	> 20 µM	> 20 µM
Fc1ccc(-n2cc(Cn3c(-c4cccc(F)c4)nc4ccccc43)nn2)cc1	> 20 µM	> 20 µM	> 20 µM	> 20 µM	> 20 µM	> 20 µM	> 20 µM	> 20 µM	> 20 µM
